Reference: patent US20020115613A1, “Treatment of prostate cancer” (priority 2001, published 2002)
* marks the point of attachment. Cbz = O=C(OCc1ccccc1)*; CH2F = FC*

How the values were obtained:
prostate cancer cells = details: cited from earlier work
PC3AR cells = assay: Induction of apoptosis / cell survival (FIG. 1E, 6A); format: cell-based; details: 5 μM hydroxyflutamide for 5 days, then 400 ng/ml TRAIL, FIG. 1E
Experimental: PC3AR cells are a clonal cell line derived by stable transfection of PC3 with a full-length human AR cDNA (Dai, J. L., et al., Steroids, 61, 531-539, 1996). PC3Neo cells were stably transfected with neomycin vector alone. Cells were grown in RPMI 1640 with 5% FBS (Hyclone, Logan, Utah), 100 units/ml penicillin, 100 μg/ml streptomycin, 0.25 μg/ml fungizone and G418 (350 μg/ml) to select for neomycin-resistant cells. In experiments using antiandrogens, cells were maintained in 5% DCC stripped serum for at least 48 hr before treatment with hydroxyflutamide (Sigma Chemical Co., St. Louis, Mo.). The medium and all the drugs were replaced every two days. Cells were treated with 200 ng/ml, 400 ng/ml or 600 ng/ml of TRAIL (Biomol Research Laboratories, Inc, Plymouth Meeting, Pa.) for 2, 4, 6, 8, 16 and 20 hr. Cells were treated with 5 μM hydroxyflutamide for 5 days before the commencement of treatment with 400 ng/ml TRAIL.
Two methods were used to measure induction of apoptosis by drug treatment: the MTT assay and the Apoptosense assay. The MTT assay measures mitochondrial enzyme activity and is indicative of the number of surviving cells. The Apoptosense assay is an ELISA, which utilizes M30 antibody to recognize the C-terminal domain (amino acids 387-396) of cytokeratin 18 that is exposed in apoptotic cells after cleavage by caspases.
Cells were seeded in 96-well plates (6000 cells/well) and treatment was started 24 hr after seeding the cells. After completion of the treatment, cells were incubated at 37° C. with the MTT reagent for 3 hr and processed according to manufacturers instructions (Promega Corporation, Madison, Wis.). Color development was measured at 490 nm on a Spectra MAX 340 microplate reader (Molecular Devices, Menlo Park, Calif.).

LNCaP C4-2 cells = assay: Western blotting of death receptors, caspases, Bid, cytochrome c, Akt; format: cell-based; details: LNCaP C4-2 treated with TRAIL and/or Mifepristone; inhibitor pre-treatment one hr; FIG. 7
Experimental: (§1) LNCaP were obtained from American Type Culture Collection (Rockville, Md.) and LNCaP C4-2 cells were purchased from Urocor Inc., Oklahoma City, Okla. Cells were grown in RPMI 1640 medium supplemented with 10% (LNCaP) or 5% (LNCaP C4-2) fetal bovine serum (Hyclone, Logan, Utah) and grown in the presence of 5% CO2 at 37° C. Cells were treated with 10 μM Mifepristone (Sigma, St. Louis, Mo.) for three days or with increasing concentrations (from 200 ng/ml to 600 ng/ml) of TRAIL (Biomol Research Laboratories, Inc., Plymouth Meetings, Pa.) for varying time intervals 2, 4, 6, 8, 16, 20 and 24 hours (hr). Thus, for treatment with Mifepristone, cells were treated with Mifepristone for three days and then some cells treated (without washing) with TRAIL for indicated periods. Upon completion of the experiment, cells were harvested, and total proteins, cytosol or mitochondrial fractions were isolated as described below. At least three experiments were conducted with a minimum of four plates per treatment per experiment.
(§2) For experiments using inhibitors, the cells were pre-treated with increasing concentrations of the inhibitors (10 μM to 100 μM) for one hr and then with TRAIL. Caspase-8-specific (Z-IETD-FMK) and caspase-9-specific ([…]) inhibitors were purchased from Enzyme Systems Products, Livermore, Calif. The inhibitors were dissolved in DMSO; to limit cellular toxicity, care was taken not to exceed 0.2% DMSO in the culture medium. Appropriate controls included vehicle treated cells with or without the inhibitors.
(§3) Cells were harvested by trypsinization, washed in 1×PBS and cell pellets resuspended in lysis buffer (100 mM Tris-HCl pH 8.0, 0.1% Triton X 100 and protease inhibitor cocktail from Roche Diagnostic Corporation, Indianapolis, Ind.). Cells were incubated over ice for 30 min and centrifuged at 10,000 g at 4° C. for 10 min. The supernatant was collected and the protein concentration estimated using Bio-Rad protein reagent (Bio-Rad Laboratories, Hercules, Calif.).
(§4) Proteins (50 μg, unless stated otherwise) were separated on NuPAGE 10% Bis-Tris gels (Novex pre-cast mini gels, InVitrogen, Carlsbad, Calif.) at 100 volts for 1 hour in the presence of 1×MES-SDS running buffer (InVitrogen, Carlsbad, Calif.). Separated proteins were transferred to (PVDF) membranes (Bio-Rad Laboratories, Hercules, Calif.) at 42 volts for 2.5 hr using a Novex XCell II blotting apparatus in MES transfer buffer in the presence of NuPAGE antioxidant. Transfer of the proteins to the polyvinylidene difluoride (PVDF) membrane was confirmed by staining with Ponceau S (Sigma, St. Louis, Mo.). The blots were blocked in 5% non-fat dry milk in TBS, washed twice for 10 min each with TBS containing 0.1% Tween-20 and incubated for 2 hr at RT with primary antibody diluted in TBS containing 0.5% milk.
(§5) The following antibodies were used in the immunoblots: DR4, DR5 and cytochrome c (Imgenex, San Diego, Calif.), BID (BioSource International, Camarillo, Calif.), caspases-8, -9, and Akt (Cell Signaling Technology, Beverely, Mass.), caspase-3 (BD Pharmingen, San Diego, Calif.) Iκβ and XIAP (Cell Signaling Technology, Beverly, Mass.), cFLIP (StressGen Biotechnology Corp, Victoria, Canada), actin (Sigma Chemical Co., St. Louis, Mo.) and Cox II (Molecular Probes, Eugene, Oreg.). Immunoreactive bands were visualized using ECL detection system (Amersham, Pharmacia Biotech, Arlington Heights, Ill.) and signals were developed after exposure to X-ray film (X-Omat films, Eastman Kodak Company, Rochester, N.Y.).
(§6) For separation of mitochondrial and cytosolic fractions, cells were trypsinized, centrifuged at 600 g for 10 min at 4° C., washed twice in ice-cold PBS and re-suspended in buffer A (20 mM HEPES-KOH, pH 7.2, 10 mM KCl, 1.5 mM MgC12, 1 mM sodium-EDTA, 1 mM sodium-EGTA, 250 mM sucrose and protease inhibitor cocktail). Cells were homogenized on ice with a glass Dounce homogenizer (30 strokes) and were centrifuged at 750 g for 5 min at 4° C. […]

LNCaP cells = assay: as above; format: cell-based; details: LNCaP treated with TRAIL and/or Mifepristone; inhibitor pre-treatment one hr; FIG. 7
Experimental: as §1, §2, §3, §4, §5, §6

| Compound | ability to induce apoptosis in prostate cancer cells (Sridhar et al., 2001) (prostate cancer cells) | effect of anti-androgen pre-treatment on response to TRAIL (PC3AR cells) | caspase-8 activation in presence of caspase inhibitor (LNCaP C4-2 cells) | tBid in presence of caspase inhibitor (LNCaP C4-2 cells) | caspase-8 activation in presence of caspase inhibitor (LNCaP cells) | tBid in presence of caspase inhibitor (LNCaP cells) | caspase-3 activation in presence of caspase inhibitor (LNCaP C4-2 cells) | caspase-7 activation in presence of caspase inhibitor (LNCaP C4-2 cells) | caspase-3 activation in presence of caspase inhibitor (LNCaP cells) | caspase-7 activation in presence of caspase inhibitor (LNCaP cells) |
| --- | --- | --- | --- | --- | --- | --- | --- | --- | --- | --- |
| CC/C(=C(\c1ccccc1)c1ccc(OCCN(C)C)cc1)c1ccccc1 [Tamoxifen] | marginal ability to induce apoptosis |  |  |  |  |  |  |  |  |  |
| CC(C)(O)C(=O)Nc1ccc([N+](=O)[O-])c(C(F)(F)F)c1 [hydroxyflutamide, reference compound] |  | did not alter their response to TRAIL |  |  |  |  |  |  |  |  |
| Cbz-IETD-CH2F |  |  | blocked activation of caspase-8 | tBid was not present | blocked activation of caspase-8 | tBid was not present |  |  |  |  |
| Cbz-LEHD-CH2F |  |  | did not affect caspase-8 activity | significantly reduced the levels of tBid | did not affect caspase-8 activity | significantly reduced the levels of tBid | reduced caspase-3 activity | blocked activation of caspase-7 | reduced caspase-3 activity | blocked activation of caspase-7 |
